Test systems include NCI-H23; SK-OV-3; Hs-578T; A549; SK-MEL-28; UO-31; MDA-N; SW-620; SNB-75; DU-145; SF-295; NCI-H460; SK-MEL-5; MDA-MB-231; MCF7; 786-0; RXF 393; CCRF-CEM; TK-10; A498.
Assay in all cases: NCI anticancer screen, dose series, 48 h

The source of these data is ChEMBL document CHEMBL1201862, “PubChem BioAssay data set” (2004).

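How tested: cells in 96-well plates exposed to compound for 48 hours at five concentrations. Abbreviation: GI50, concentration required for 50% inhibition of growth.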 The source made the active and inactive calls. Cut-off read from the data, not from the text of the source: active = GI50 up to about 1.1 µM and inactive = higher. Some results are limits rather than exact numbers.

`O=C(N/N=C/c1ccc([N+](=O)[O-])cc1)Nc1ccc(Br)cc1`: the GI50 with NCI-H23 was 47.2 µM (inactive); with SK-OV-3, 68.2 µM (inactive); in the assay on Hs-578T it was > 100 µM (inactive); in the assay with A549, > 100 µM (inactive); with SK-MEL-28 it was > 100 µM (inactive); in the assay with UO-31, > 100 µM (inactive). Moreover, the GI50 with MDA-N is 44.6 µM (inactive); in the assay with SW-620 it was 52 µM (inactive); in the assay with SNB-75, > 100 µM (inactive); in the assay with DU-145, 47.9 µM (inactive); with SF-295, > 100 µM (inactive); with NCI-H460, > 100 µM (inactive). In addition, the GI50 in the assay with SK-MEL-5 was 51.6 µM (inactive); in the assay with MDA-MB-231 it was > 100 µM (inactive); in the assay on MCF7, 34 µM (inactive); in the assay on 786-0, 84.7 µM (inactive); with RXF 393, > 100 µM (inactive); with CCRF-CEM, 23.4 µM (inactive). Further, in the assay with TK-10, the GI50 was > 100 µM (inactive).
For `COc1cc(OCc2ccc3nc(-c4ccccc4)c(N)nc3c2)cc(OC)c1OC`, the GI50 in the assay on Hs-578T is 21.2 µM (inactive); with A549, 20.6 µM (inactive); with SK-MEL-28 it was 19.3 µM (inactive); in the assay on UO-31, 10.7 µM (inactive); in the assay with MDA-N, 15.5 µM (inactive); with SW-620 it was 28.2 µM (inactive). Also, the GI50 in the assay on SNB-75 was 19.2 µM (inactive); in the assay with DU-145, 22.2 µM (inactive); with SF-295, 26 µM (inactive); in the assay on NCI-H460, 18.7 µM (inactive); with SK-MEL-5 it was 11.3 µM (inactive); in the assay on MDA-MB-231, 25.5 µM (inactive). The GI50 with MCF7 was 22 µM (inactive); in the assay with A498, 27.1 µM (inactive); in the assay on 786-0, 30.8 µM (inactive); in the assay on RXF 393 it was 23.1 µM (inactive); in the assay with CCRF-CEM, 16.7 µM (inactive); with TK-10, 24.1 µM (inactive).
Consider `CC(=O)OCC1OC(N2C(=O)NC(=O)C3C=C4CCCCC4=CC32)CC1OC(C)=O` (configuration not stated), for which the GI50 in the assay with SK-OV-3, with Hs-578T, in the assay with A549, with SK-MEL-28, with UO-31 and with MDA-N was > 100 µM (inactive) each time. Besides, the GI50 with SW-620 is > 100 µM (inactive); in the assay on SNB-75 it was 56.4 µM (inactive); with DU-145, > 100 µM (inactive); in the assay with SF-295, > 100 µM (inactive); with NCI-H460, > 100 µM (inactive); in the assay on MDA-MB-231, > 100 µM (inactive). Moreover, the GI50 with MCF7, with A498, in the assay on 786-0 and in the assay on TK-10 was > 100 µM (inactive) each time.
On to `C/C(=C\CNc1ncnc2c1ncn2CCC#N)CO`, for which the GI50 in the assay on NCI-H23, in the assay on SK-OV-3, with Hs-578T, with A549, in the assay with SK-MEL-28 and with UO-31 was > 100 µM (inactive) in each case. Further, the GI50 in the assay on MDA-N, in the assay on SW-620, with SNB-75, in the assay on DU-145, with SF-295 and in the assay on NCI-H460 was > 100 µM (inactive) in each case. In addition, the GI50 with SK-MEL-5, with MDA-MB-231, with MCF7, in the assay with 786-0, with RXF 393 and in the assay on CCRF-CEM was > 100 µM (inactive) in each case. Further, in the assay with TK-10, the GI50 is > 100 µM (inactive).
For `Nn1c(SCC(=O)NCc2ccccc2)nc2ccccc2c1=O`, the GI50 in the assay with NCI-H23 was 82.8 µM (inactive); in the assay with Hs-578T, 57.5 µM (inactive); with A549, 31.3 µM (inactive); in the assay with SK-MEL-28, 92.5 µM (inactive); with UO-31, 43.9 µM (inactive); in the assay with MDA-N, 38.9 µM (inactive). Also, the GI50 in the assay with SW-620 is 57 µM (inactive); in the assay with SNB-75, > 100 µM (inactive); with DU-145, 65 µM (inactive); in the assay with SF-295, 48.6 µM (inactive); in the assay on NCI-H460, 46.3 µM (inactive); with SK-MEL-5 it was 41 µM (inactive). Further, the GI50 was 57.8 µM (inactive) in the assay on MDA-MB-231; 52.1 µM (inactive) in the assay on MCF7; 61.2 µM (inactive) in the assay on A498; 55.6 µM (inactive) with 786-0; 34.1 µM (inactive) in the assay on RXF 393; 13.7 µM (inactive) in the assay with CCRF-CEM. The GI50 in the assay with TK-10 was 41.5 µM (inactive).
Regarding `O=P(O)(O)c1ccc(-c2ccc(I)cc2)cc1`, the GI50 with NCI-H23, in the assay on SK-OV-3, with Hs-578T, in the assay with A549, in the assay on SK-MEL-28 and with UO-31 was > 100 µM (inactive) in each case. For the same compound, the GI50 with MDA-N was > 100 µM (inactive); in the assay with SW-620, > 100 µM (inactive); with SNB-75 it was 65 µM (inactive); in the assay on DU-145 it was > 100 µM (inactive); in the assay with SF-295, > 10 µM (inactive); with NCI-H460, > 100 µM (inactive). For the same compound, the GI50 in the assay with SK-MEL-5 is > 100 µM (inactive); in the assay on MDA-MB-231 it was > 100 µM (inactive); with MCF7 it was > 100 µM (inactive); with 786-0 it was > 100 µM (inactive); in the assay on RXF 393, 13.5 µM (inactive); in the assay with CCRF-CEM it was > 100 µM (inactive). Besides, in the assay with TK-10, the GI50 is > 100 µM (inactive).
Consider `Cc1ccc(/C=C2\CNC/C(=C\c3ccc(C)cc3)C2=O)cc1`, for which the GI50 in the assay on NCI-H23 is 1.83 µM (inactive); in the assay with SK-OV-3, 2.4 µM (inactive); in the assay on Hs-578T, 1.89 µM (inactive); in the assay with A549, 2.83 µM (inactive); with SK-MEL-28, 2.04 µM (inactive); with UO-31, 1.77 µM (inactive). The GI50 with MDA-N is 2.49 µM (inactive); in the assay on SW-620 it was 1.12 µM (inactive); in the assay on SNB-75 it was 22.9 µM (inactive); in the assay on DU-145, 4.48 µM (inactive); in the assay on SF-295, 3.54 µM (inactive); in the assay on NCI-H460, 1.48 µM (inactive). Moreover, the GI50 with SK-MEL-5 was 2.43 µM (inactive); in the assay with MDA-MB-231 it was 2.91 µM (inactive); with MCF7 it was 0.513 µM (active); with A498 it was 1.89 µM (inactive); in the assay on 786-0 it was 1.35 µM (inactive); in the assay on CCRF-CEM it was 0.689 µM (active). Moreover, in the assay on TK-10, the GI50 is 5.48 µM (inactive).
For the compound `O=C1C(Br)=CC2(C=C1Br)CCNC1=C2C(=O)c2cccnc2C1=O`, the GI50 with NCI-H23 was 4.07 µM (inactive); with SK-OV-3 it was 16.9 µM (inactive); in the assay with Hs-578T, 5.42 µM (inactive); in the assay with A549 it was 14.8 µM (inactive); with SK-MEL-28 it was 14.2 µM (inactive); in the assay with UO-31, 17.5 µM (inactive). Further, the GI50 in the assay on MDA-N was 1.77 µM (inactive); in the assay on SW-620, 11.5 µM (inactive); in the assay on SNB-75, 10.7 µM (inactive); with DU-145, 11.4 µM (inactive); with SF-295, 8.75 µM (inactive); in the assay on NCI-H460 it was 4.13 µM (inactive). Moreover, the GI50 is 3.77 µM (inactive) in the assay on SK-MEL-5; 14.1 µM (inactive) in the assay with MDA-MB-231; 13.8 µM (inactive) in the assay on MCF7; 15.3 µM (inactive) in the assay on 786-0; 4.92 µM (inactive) in the assay on RXF 393; 6.22 µM (inactive) with CCRF-CEM. Also, the GI50 with TK-10 is 19.8 µM (inactive).
With `CCOP(=O)(OCC)[C@H]1OC(C)(C)O[C@@H]1CO`, the GI50 in the assay with NCI-H23, in the assay on SK-OV-3, in the assay with Hs-578T, in the assay on A549, in the assay with SK-MEL-28 and in the assay with MDA-N was > 100 µM (inactive) each time. Further, the GI50 in the assay with SW-620, with DU-145, in the assay on SF-295, with NCI-H460, with SK-MEL-5 and in the assay with MDA-MB-231 was > 100 µM (inactive) in each case. In addition, the GI50 in the assay with MCF7, in the assay on A498, in the assay with 786-0, in the assay on CCRF-CEM and in the assay with TK-10 was > 100 µM (inactive) each time.
With `Cc1cc(C)c2c(n1)S(=O)(=O)N(CCCN1CCN(c3cccc(Cl)c3)CC1)C(C(=O)c1ccccc1)=C2O`, the GI50 was 28.4 µM (inactive) in the assay on NCI-H23; 33.7 µM (inactive) in the assay with SK-OV-3; 65.8 µM (inactive) in the assay on Hs-578T; 30.4 µM (inactive) with A549; 44.4 µM (inactive) with SK-MEL-28; 19.2 µM (inactive) in the assay with UO-31. For the same compound, the GI50 was 25.9 µM (inactive) with MDA-N; 31.8 µM (inactive) in the assay on SW-620; 36.7 µM (inactive) with DU-145; 31.8 µM (inactive) with SF-295; 18.5 µM (inactive) in the assay on NCI-H460; 21.6 µM (inactive) in the assay on SK-MEL-5. Besides, the GI50 in the assay on MDA-MB-231 is 44.1 µM (inactive); in the assay with MCF7 it was 29.8 µM (inactive); with A498, 28.8 µM (inactive); in the assay with 786-0 it was 19.5 µM (inactive); in the assay on CCRF-CEM, 25.9 µM (inactive); in the assay with TK-10 it was 27 µM (inactive).
Turning to `CN(NC(=O)c1ccco1)C1=NCCCCN1`, the GI50 with NCI-H23, with SK-OV-3, in the assay on Hs-578T, in the assay with A549, in the assay on SK-MEL-28 and in the assay with UO-31 was > 100 µM (inactive) in each case. For the same compound, the GI50 in the assay on MDA-N, in the assay on SW-620, with SNB-75, in the assay on DU-145, with SF-295 and with NCI-H460 was > 100 µM (inactive) each time. Further, the GI50 with SK-MEL-5, with MDA-MB-231, in the assay on MCF7, in the assay on 786-0, in the assay on RXF 393 and in the assay with CCRF-CEM was > 100 µM (inactive) throughout. In addition, the GI50 with TK-10 is > 100 µM (inactive).
